Legend:
TRKB = molecular target: T1, TRKB (Mus musculus, UniProt P15209); assay: Kinobeads elution with test compound, mouse brain lysate, MS; format: binding; conditions: kinase released from kinobeads by specific elution
T1 construct: from tissue; host or cells: mouse brain
From the text: This example illustrates competitive elution of proteins bound to kinobeads with non-modified test compounds (see particularly the fourth aspect of the invention).
The kinobeads were contacted with mouse brain lysate under conditions that allow the binding of the proteins in the lysate to the ligands. The binding conditions were close to physiological by choosing suitable buffer conditions preserving the function of the proteins. After removing non-captured proteins through a gentle washing procedure the bound proteins were contacted with a test compound for protein elution.
Various test compounds (see section 2.7) were used to release bound proteins following these steps:
1. Resuspend beads with bound proteins (section 2.4) in 1×DP buffer/0.2% NP-40 as 1:3 slurry (volume/volume). 2. Transfer 20 μl the 1:3 slurry into MoBiTech columns (equivalent to 5 μl of beads). 3. Place the column into an Eppendorf tube and centrifuge it for 15 seconds at 800 rpm at 4° C. Close columns with lower lid. 4. Add 10 μl elution buffer containing 1.0 mM of the test compound (concentration ranges of 0.1 to 1.0 mM are suitable). As a control use elution buffer containing 2% DMSO or 2% DMF dependent on the solvent used for dissolving the test compound. Close column with upper lid. 5. Incubate for 30 minutes at 4° C. in an Eppendorf incubator at 700 rpm. 6. […] To harvest the eluate centrifuge 2 minutes at 2.000 rpm in table top centrifuge at room temperature. The typical volume of the eluate is approximately 15 μl. 7. Add 5 μl 4× NuPAGE SDS Sample Buffer (Invitrogen, NP0007) containing 100 mM DTT (DTT has to be added just prior to use). 8. Incubate for 30 minutes at 50° C. 9. Add 1/10 volume of 200 mg/ml iodoacetamide, incubate for 30 min at room temperature, protect from light. This reaction leads to the alkylation of cysteines for mass spectrometry. 10. Before loading samples onto the gel, centrifuge samples for 5 minutes at 15.000 rpm in order to remove precipitates. 11. […] 2.6 Preparation of Stock Solutions used in this Protocol
Search criteria varied depending on which mass spectrometer was used for the analysis.

protein kinase C alpha = molecular target: T2, protein kinase C alpha (Homo sapiens, UniProt P17252); assay: In-lysate competition binding with kinobeads, Jurkat lysate, iTRAQ MS; conditions: for Relative Intensity, PKCa (PRKCA): DMSO control = 1.0
T2 construct: Aliqots of Jurkat lysate (10 mg protein) were incubated with different Bis VIII concentrations; endogenous in cells; host or cells: Jurkat clone E6-1 lysate
Description: (§1) This example illustrates competition binding in cell lysates (see particularly the third aspect of the invention). A test compound, Bisindolylmaleimide VIII (Bis VIII, a well known kinase inhibitor; Davies et al., 2000. Specificity and mechanism of action of some commonly used protein kinase inhibitors. Biochemical Journal 351 (Pt 1): 95-105) was added to a cell lysate thereby allowing the test compound to bind to the target proteins in the lysate. Then the lysate was contacted with the kinobeads affinity matrix to capture remaining free target proteins. The proteins bound to the kinobeads matrix were then eluted with detergent-containing buffer, separated on a SDS-polyacryamide gel and analyzed by immunodetection (Western blots) or mass spectrometry detection.
(§2) For the quantitative detection of proteins by mass spectrometry proteins were eluted from the affinity matrix and subsequently separated by SDS-Polyacrylamide gel elecrophoresis. Suitable gel areas were cut out and subjected to in-gel proteolytic digestion with trypsin.
(§3) Four tryptic digest samples (corresponding to three different Bis VIII concentrations in the lysate and one DMSO control) were labeled with ITRAQ reagents and the combined samples were analyzed in a single LC-MS/MS mass spectrometry analysis followed by peak quantification in the MS/MS spectrum (Ross et al., 2004. Multiplexed protein quantitation in Saccharomyces cerevisiae using amine-reactive isobaric tagging reagents. Mol. Cell. Proteomics 3(12): 1154-1169). […] Binding curves for individual kinases are shown (FIG. 5). The relative intensity 50 (RI50) values representing the affinity of kinase-compound pairs are similar to IC50 values reported by kinase enzyme assays (Davies et al., 2000. Specificity and mechanism of action of some commonly used protein kinase inhibitors. Biochemical Journal 351 (Pt 1): 95-105).
(§4) Aliqots of Jurkat lysate (10 mg protein) were incubated with different Bis VIII concentrations for one hour at 4° C. (0.025 μM, 0.074 μM, 0.22 μM, 0.67 μM, 2.0 μM and 6.0 μM final concentration of Bis VIII). To this end Bis VIII solutions were prepared in 100% DMSO as solvent that corresponded to 200 fold desired final Bis VIII concentration (Bis VIII from Alexis Biochemicals cat. number ALX 270-056). Five μl of these solutions were added to 1 ml of lysate resulting in the indicated final concentrations. For a control experiment 5 μl of DMSO without Bis VIII were used.
(§5) To each preincubated lysate sample 40 μl of kinobeads (see example 1) were added and incubated for one hour at 4° C. During the incubation the tubes were rotated on an end-over-end shaker (Roto Shake Genie, Scientific Industries Inc.). Beads were collected by centrifugation, transfered to Mobicol-columns (MoBiTech 10055) and washed with 10 ml 1×DP buffer containing 0.4% NP40 detergent, followed by a wash with 5 ml 1×DP buffer with 0.2% NP40. To elute the bound proteins, 100 μl 2×SDS sample buffer was added, the column was heated for 30 minutes at 50° C. and the eluate was transferred to a microfuge tube by centrifugation. Proteins were then separated by SDS-Polyacrylamide electrophoresis (SDS-PAGE). The composition and preparation of buffers is described in example 2.
(§6) The peptide extracts of samples treated with different concentrations of the test compound (0.074 μM, 0.22 μM and 0.67 μM Bis VIII) and the solvent control (0.5% DMSO) were treated with different isomers of the isobaric tagging reagent (iTRAQ Reagents Multiplex Kit, part number 4352135, Applied Biosystems, Foster City, Calif., USA). The iTRAQ reagents are a set of multiplexed, amine-specific, stable isotope reagents that can label all peptides in up to four different biological samples enabling simultaneous identification and quantitation of peptides. The iTRAQ reagents were used according to instructions provided by the manufacturer. […]

[1] = molecular target: T3, Glycogen Synthase Kinase 3 beta (Homo sapiens, UniProt P49841); assay: as above; conditions: for Relative Intensity, GSK3B: DMSO control = 1.0
T3 construct: Aliqots of Jurkat lysate (10 mg protein) were incubated with different Bis VIII concentrations; endogenous in cells; host or cells: Jurkat clone E6-1 lysate
T3 sequence (P49841 whole entry): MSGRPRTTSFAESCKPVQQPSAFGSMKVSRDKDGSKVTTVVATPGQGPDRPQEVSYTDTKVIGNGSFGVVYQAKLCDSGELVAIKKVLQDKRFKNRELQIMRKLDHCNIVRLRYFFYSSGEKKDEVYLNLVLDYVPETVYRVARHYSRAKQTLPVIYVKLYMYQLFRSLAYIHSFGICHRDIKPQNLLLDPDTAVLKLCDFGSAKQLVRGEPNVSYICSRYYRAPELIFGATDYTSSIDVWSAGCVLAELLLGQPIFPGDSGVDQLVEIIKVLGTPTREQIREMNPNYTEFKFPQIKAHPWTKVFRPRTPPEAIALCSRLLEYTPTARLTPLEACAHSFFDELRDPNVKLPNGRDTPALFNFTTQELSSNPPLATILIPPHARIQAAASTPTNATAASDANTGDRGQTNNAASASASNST
Description: as §1, §2, §3, §4, §5, §6

[2] = molecular target: T4, Glycogen Synthase Kinase 3 alpha (Homo sapiens, UniProt P49840); assay: as above; conditions: for Relative Intensity, GSK3A: DMSO control = 1.0
T4 construct: endogenous in cells; host or cells: Jurkat clone E6-1 lysate
T4 sequence (P49840 whole entry): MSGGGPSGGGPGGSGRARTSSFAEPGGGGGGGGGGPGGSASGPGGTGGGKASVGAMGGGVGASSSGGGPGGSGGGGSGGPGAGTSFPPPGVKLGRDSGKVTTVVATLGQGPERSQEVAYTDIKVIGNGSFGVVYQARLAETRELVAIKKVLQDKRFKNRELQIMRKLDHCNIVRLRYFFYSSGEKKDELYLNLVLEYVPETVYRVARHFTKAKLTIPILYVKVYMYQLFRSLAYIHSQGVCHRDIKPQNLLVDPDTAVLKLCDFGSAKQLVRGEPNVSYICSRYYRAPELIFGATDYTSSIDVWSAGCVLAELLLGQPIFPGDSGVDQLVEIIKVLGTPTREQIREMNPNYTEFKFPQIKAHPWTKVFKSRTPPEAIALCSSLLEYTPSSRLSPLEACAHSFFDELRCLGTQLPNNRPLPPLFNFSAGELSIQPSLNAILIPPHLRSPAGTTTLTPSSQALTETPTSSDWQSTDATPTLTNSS
Description: as §1, §2, §3, §4, §5, §6

protein kinase C beta = protein kinase C beta (Homo sapiens, UniProt P05771); assay: as above; conditions: for Relative Intensity, PKCb (PRKCB1): DMSO control = 1.0
protein kinase C beta, sequence (P05771 whole entry): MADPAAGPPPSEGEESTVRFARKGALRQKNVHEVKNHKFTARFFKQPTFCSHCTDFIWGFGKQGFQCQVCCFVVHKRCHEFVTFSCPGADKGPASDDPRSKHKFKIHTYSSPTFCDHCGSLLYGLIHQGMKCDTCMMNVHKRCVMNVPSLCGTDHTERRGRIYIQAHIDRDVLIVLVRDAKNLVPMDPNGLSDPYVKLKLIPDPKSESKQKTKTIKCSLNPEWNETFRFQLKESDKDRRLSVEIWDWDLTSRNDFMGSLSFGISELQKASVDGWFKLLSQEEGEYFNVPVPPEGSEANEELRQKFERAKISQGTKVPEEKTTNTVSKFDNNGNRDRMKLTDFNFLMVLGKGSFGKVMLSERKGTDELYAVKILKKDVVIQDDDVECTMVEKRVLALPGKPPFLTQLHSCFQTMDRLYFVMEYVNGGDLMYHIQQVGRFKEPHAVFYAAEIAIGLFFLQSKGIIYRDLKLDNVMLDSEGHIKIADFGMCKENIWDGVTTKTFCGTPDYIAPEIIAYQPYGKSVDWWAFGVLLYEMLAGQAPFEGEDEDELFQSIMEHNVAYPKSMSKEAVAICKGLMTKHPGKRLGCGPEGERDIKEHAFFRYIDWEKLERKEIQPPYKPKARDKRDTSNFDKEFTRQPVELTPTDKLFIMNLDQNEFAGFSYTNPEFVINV
Description: as §1, §2, §3, §4, §5, §6

T1 sequence (P15209 32-821): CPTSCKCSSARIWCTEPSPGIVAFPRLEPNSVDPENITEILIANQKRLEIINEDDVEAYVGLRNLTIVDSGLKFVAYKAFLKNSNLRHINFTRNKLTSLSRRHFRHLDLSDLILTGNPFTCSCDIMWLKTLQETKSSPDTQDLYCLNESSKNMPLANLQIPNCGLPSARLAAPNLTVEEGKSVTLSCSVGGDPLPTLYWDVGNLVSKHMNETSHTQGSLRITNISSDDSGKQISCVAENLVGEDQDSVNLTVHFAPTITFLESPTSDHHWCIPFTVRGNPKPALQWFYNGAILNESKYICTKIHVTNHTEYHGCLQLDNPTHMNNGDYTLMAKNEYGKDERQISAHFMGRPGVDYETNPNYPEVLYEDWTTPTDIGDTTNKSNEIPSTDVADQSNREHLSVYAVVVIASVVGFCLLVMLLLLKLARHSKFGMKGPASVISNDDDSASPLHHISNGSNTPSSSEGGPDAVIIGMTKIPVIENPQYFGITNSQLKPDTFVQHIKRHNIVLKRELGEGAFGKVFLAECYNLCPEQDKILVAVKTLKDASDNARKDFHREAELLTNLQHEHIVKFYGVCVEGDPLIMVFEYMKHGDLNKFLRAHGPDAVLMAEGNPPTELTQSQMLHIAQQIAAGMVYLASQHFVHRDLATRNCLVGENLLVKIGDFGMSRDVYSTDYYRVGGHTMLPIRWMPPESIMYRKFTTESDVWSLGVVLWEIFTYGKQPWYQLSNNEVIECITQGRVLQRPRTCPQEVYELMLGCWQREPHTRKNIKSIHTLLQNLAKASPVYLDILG

| Compound | number of identified peptides, TRKB (TRKB) | mass spectrometry score, TRKB (TRKB) | Relative Intensity, PKCa (PRKCA) (protein kinase C alpha; 0.074 uM in lysate) | Relative Intensity, PKCa (PRKCA) (protein kinase C alpha; 0.67 uM in lysate) | IC50 (protein kinase C alpha; Jurkat cell lysate, concentration at which relative intensity of the MS signal is 50% of DMSO control, read-out: RI50 (PKCa)) | Relative Intensity, GSK3B ([1]; 0.074 uM in lysate) | Relative Intensity, GSK3B ([1]; 0.67 uM in lysate) | IC50 ([1]; Jurkat cell lysate, concentration at which relative intensity of the MS signal is 50% of DMSO control, read-out: RI50 (GSKb)) | Relative Intensity, GSK3A ([2]; 0.074 uM in lysate) | Relative Intensity, GSK3A ([2]; 0.67 uM in lysate) | IC50 ([2]; Jurkat cell lysate, concentration at which relative intensity of the MS signal is 50% of DMSO control, read-out: RI50 (GSKa)) | Relative Intensity, PKCb (PRKCB1) (protein kinase C beta; 0.074 uM in lysate) | Relative Intensity, PKCb (PRKCB1) (protein kinase C beta; 0.67 uM in lysate) | IC50 (protein kinase C beta; Jurkat cell lysate, concentration at which relative intensity of the MS signal is 50% of DMSO control, read-out: RI50 (PKCb)) |
| --- | --- | --- | --- | --- | --- | --- | --- | --- | --- | --- | --- | --- | --- | --- |
| CNC1CC2OC(C)(C1OC)n1c3ccccc3c3c4c(c5c6ccccc6n2c5c31)C(=O)NC4 (stereo not drawn) [CZC9280] | 4 |  |  |  |  |  |  |  |  |  |  |  |  |  |
| CC(C)[C@H](CO)Nc1nc(Nc2ccc(C(=O)O)c(Cl)c2)c2ncn(C(C)C)c2n1 [Purvalanol B, reference compound] | 4 | 207 |  |  |  |  |  |  |  |  |  |  |  |  |
| Cn1cc(C2=C(c3cn(CCCN)c4ccccc34)C(=O)NC2=O)c2ccccc21 [Bis VIII, Bisindolylmaleimide VIII] |  |  | 0.25 | 0.18 | 0.0122 µM | 0.54 | 0.28 | 0.095 µM | 0.50 | 0.20 | 0.0727 µM | 0.29 | 0.17 | 0.0215 µM |
